# Test results taken from publication PMC7070898 (Clinical and Translational Science, 2019).
# Legend:
# [1] = Plasma pharmacokinetics, noncompartmental, SAD/MAD trial; format: in vivo, human; conditions: for Vd/F / half-life: human, in vivo; for Vd/F: Vz/F, N 9, geometric mean (CV% GM)
# [2] = Holter ECG, concentration-QTcF, by-time point and categorical analysis; format: in vivo, human; conditions: for mean ΔΔQTcF, by‐time point analysis: 100 mg dose group (n = 6); for Predicted mean ΔΔQTcF: linear mixed model; for Cmax: human, in vivo, Geometric mean Cmax
# [3] = test system: B cell and basophil activation; conditions: human cellular assays ref 8; cited from earlier work
# [4] = test system: interferon‐accelerated systemic lupus erythematosus; conditions: mouse model of interferon‐accelerated systemic lupus erythematosus ref 8; cited from earlier work
# [5] = test system: collagen‐induced arthritis; conditions: collagen‐induced arthritis mouse model ref 8; cited from earlier work
# [6] = test system: experimental autoimmune encephalomyelitis; conditions: B cell‐dependent and T cell‐dependent EAE mouse models ref 9, 10; cited from earlier work
smiles,measurement,setting,value
C=CC(=O)N1CCC(CNc2ncnc(N)c2-c2ccc(Oc3ccccc3)cc2)CC1 [evobrutinib],Vd/F,"[1]; 25 mg, multiple-dose study day 1, 25 mg",498 L
same,Vd/F,"[1]; 75 mg, multiple-dose study day 1, 75 mg",620 L
same,Vd/F,"[1]; 200 mg, multiple-dose study day 1, 200 mg",647 L
same,half-life,"[1]; 500 mg, geometric mean terminal half‐life (t1/2), single doses 350 and 500 mg",6.6 to 6.8 h
same,half-life,"[1]; geometric mean terminal half‐life (t1/2), single doses 25–200 mg",1.8 to 2.6 h
same,half-life,"[1]; half‐life (relevant t1/2), overall summary, all doses",~2 h
same,dose proportionality of AUC0–24h and Cmax,"[1]; multiple dosing of 25–200 mg, power model",Dose proportionality of AUC0–24h and Cmax was demonstrated
same,time dependency of PK,"[1]; part 2, day 14 vs day 1",no time dependency
same,Apparent clearance across doses,"[1]; single dosing 25–500 mg, part 1","2,553–3,995 mL/minute"
same,Geometric mean Cmax,"[2]; 25 mg dose group, day 1, parts 1 and 2 pooled",86.48 ng/mL
same,treatment‐emergent T wave morphological abnormalities,"[2]; 50 mg and 100 mg dose groups, day 1, 6‐hour and 8‐hour postdose",reported in two evobrutinib‐treated subjects
same,"mean ΔΔQTcF, by‐time point analysis",[2]; 6‐hour postdose,7.1 ms
same,"mean ΔΔQTcF, by‐time point analysis",[2]; 8‐hour postdose,5.6 ms
same,mean ΔΔQTcF range,"[2]; 100 mg dose group, three time points",5.6 to 7.2 ms
same,Geometric mean Cmax,"[2]; 500 mg dose group, day 1","1,512.3 ng/mL"
same,subjects with change from baseline in QTcF between 30 ms and 60 ms,"[2]; 2 of 81 subjects, both in the 200 mg dose group",2.5%
same,mean ΔΔQTcF over the range of doses,"[2]; all time points, except the 100 mg dose group",< 5 ms
same,absolute QTcF value,"[2]; any dose group, any time point",≤ 450 ms
same,Predicted mean ΔΔQTcF,[2]; at geometric mean Cmax of 75 mg dose group,-0.82 ms
same,Predicted mean ΔΔQTcF,[2]; at geometric mean Cmax of 200 mg dose group,-0.94 ms
same,Predicted mean ΔΔQTcF,[2]; at geometric mean Cmax of 350 mg dose group,-0.98 ms
same,Cmax,"[2]; 50 mg, 50 mg dose group, day 1",234 ng/mL
same,Cmax,"[2]; 75 mg, 75 mg dose group, day 1",254 ng/mL
same,Cmax,"[2]; 100 mg, 100 mg dose group, day 1",309 ng/mL
same,Cmax,"[2]; 350 mg, 350 mg dose group, day 1",846 ng/mL
same,inhibition of B cell and basophil activation,[3],potently inhibits B cell and basophil activation
same,disease activity,[4],robust reduction in disease activity
same,rheumatoid arthritis‐like symptoms,[5],rheumatoid arthritis‐like symptoms were inhibited
same,central nervous system inflammation and disease severity,[6],limited central nervous system inflammation and disease severity
